Laboratory results: PubChem BioAssay AID2060892 (Molecular Pharmacology Branch, DTP, NCI, 2025)

Tested on: HOP-62 complex spheroids with HUVEC/MSC, viability
Test: Anticancer human tumor HOP-62 cell line growth inhibition [RAS];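 note: spheroids exposed to agents for seven days before readout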;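 for viability, T/C: 100% = DMSO vehicle control viability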
Settings: for IC50: curve of first compound; for viability, T/C: stronger effect = lower value
In short: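 Agents were tested in combination matrices in half-log decrements from a top concentration at or near clinical Cmax (10 microM if undetermined). Targets were multi-cell spheroids of tumour lines plus HUVEC and MSC stromal cells.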

[1] = second compound 0.000949 µM, first compound 0.00316 µM
[2] = second compound 0.000949 µM, first compound 0.01 µM
[3] = second compound 0.000949 µM, first compound 0.0316 µM
[4] = second compound 0.000949 µM, first compound 0.1 µM
[5] = second compound 0.000949 µM, first compound 0.316 µM
[6] = second compound 0.000949 µM, first compound 1 µM
[7] = second compound 0.003 µM, first compound 0.00316 µM
[8] = second compound 0.003 µM, first compound 0.01 µM
[9] = second compound 0.003 µM, first compound 0.0316 µM
[10] = second compound 0.003 µM, first compound 0.1 µM
[11] = second compound 0.003 µM, first compound 0.316 µM
[12] = second compound 0.003 µM, first compound 1 µM
[13] = second compound 0.00949 µM, first compound 0.00316 µM
[14] = second compound 0.00949 µM, first compound 0.01 µM
[15] = second compound 0.00949 µM, first compound 0.0316 µM
[16] = second compound 0.00949 µM, first compound 0.1 µM
[17] = second compound 0.00949 µM, first compound 0.316 µM
[18] = second compound 0.00949 µM, first compound 1 µM
[19] = second compound 0.03 µM, first compound 0.00316 µM
[20] = second compound 0.03 µM, first compound 0.01 µM
[21] = second compound 0.03 µM, first compound 0.0316 µM
[22] = second compound 0.03 µM, first compound 0.1 µM
[23] = second compound 0.03 µM, first compound 0.316 µM
[24] = second compound 0.03 µM, first compound 1 µM
[25] = second compound 0.0949 µM, first compound 0.00316 µM
[26] = second compound 0.0949 µM, first compound 0.01 µM
[27] = second compound 0.0949 µM, first compound 0.0316 µM
[28] = second compound 0.0949 µM, first compound 0.1 µM
[29] = second compound 0.0949 µM, first compound 0.316 µM
[30] = second compound 0.0949 µM, first compound 1 µM
[31] = second compound 0.3 µM, first compound 0.00316 µM
[32] = second compound 0.3 µM, first compound 0.01 µM
[33] = second compound 0.3 µM, first compound 0.0316 µM
[34] = second compound 0.3 µM, first compound 0.1 µM
[35] = second compound 0.3 µM, first compound 0.316 µM
[36] = second compound 0.3 µM, first compound 1 µM

For `C=CC(=O)Nc1cc(Nc2nccc(-c3cn(C)c4ccccc34)n2)c(OC)cc1N(C)CCN(C)C` + CCn1c(-c2cccnc2C(C)OC)c2c3cc(ccc31)N1CCOC(CC(NC(=O)C(C(C)C)N(C)C(=O)C3(F)CCN(C(=O)C#CC(C)(C)N(C)C)CC3)C(=O)N3CCCC(N3)C(=O)OCC(C)(C)C2)C1, the IC50 (second compound 0.000949 µM) was > 1000 nM, the IC50 (second compound 0.003 µM) was > 1000 nM and the IC50 (second compound 0.00949 µM) was > 1000 nM. The IC50 (second compound 0.03 µM) was > 1000 nM, the IC50 (second compound 0.0949 µM) was > 1000 nM and the IC50 (second compound 0.3 µM) was > 1000 nM. The viability, T/C [1] was 100%, the viability, T/C [2] was 107% and the viability, T/C [3] was 83.9%. For the same molecule, the viability, T/C [4] was 112%, the viability, T/C [5] was 100% and the viability, T/C [6] was 54%. For the same molecule, the viability, T/C [7] was 94.1%, the viability, T/C [8] was 95.4% and the viability, T/C [9] was 94.1%. It also gave a viability, T/C [10] of 105%, a viability, T/C [11] of 103% and a viability, T/C [12] of 71.7%. The viability, T/C [13] was 92.3%, the viability, T/C [14] was 84.2% and the viability, T/C [15] was 85.3%. For the same molecule, the viability, T/C [16] was 90.4%, the viability, T/C [17] was 73.4% and the viability, T/C [18] was 54.6%. For the same molecule, the viability, T/C [19] was 97.5%, the viability, T/C [20] was 90.5% and the viability, T/C [21] was 83.4%. The viability, T/C [22] was 78.6%, the viability, T/C [23] was 60.1% and the viability, T/C [24] was 66.3%. For the same molecule, the viability, T/C [25] was 96.7%, the viability, T/C [26] was 80% and the viability, T/C [27] was 84.2%. For the same molecule, the viability, T/C [28] was 67.3%, the viability, T/C [29] was 64.3% and the viability, T/C [30] was 58.6%. It also gave a viability, T/C [31] of 84%, a viability, T/C [32] of 84% and a viability, T/C [33] of 73.5%. For the same molecule, the viability, T/C [34] was 62.1%, the viability, T/C [35] was 60.2% and the viability, T/C [36] was 54.6%.

With `CC(Nc1ccc2c(c1)OCCn1cc(N3C(=O)OCC3C(F)F)nc1-2)C(N)=O` (stereo unspecified) + CCn1c(-c2cccnc2C(C)OC)c2c3cc(ccc31)N1CCOC(CC(NC(=O)C(C(C)C)N(C)C(=O)C3(F)CCN(C(=O)C#CC(C)(C)N(C)C)CC3)C(=O)N3CCCC(N3)C(=O)OCC(C)(C)C2)C1 the IC50 (second compound 0.000949 µM) was 659 nM, the IC50 (second compound 0.003 µM) was 649 nM and the IC50 (second compound 0.00949 µM) was 326 nM. The IC50 (second compound 0.03 µM) was 260 nM, the IC50 (second compound 0.0949 µM) was 182 nM and the IC50 (second compound 0.3 µM) was 152 nM. It also gave a viability, T/C [3] of 99.7%, a viability, T/C [4] of 75.4% and a viability, T/C [5] of 45.1%. For the same molecule, the viability, T/C [6] was 54.2%, the viability, T/C (second compound 0.000949 µM, first compound 3.16 µM) was 50.6% and the viability, T/C (second compound 0.000949 µM, first compound 10 µM) was 23.9%. The viability, T/C [9] was 87%, the viability, T/C [10] was 85.9% and the viability, T/C [11] was 42.3%. The viability, T/C [12] was 50.9%, the viability, T/C (second compound 0.003 µM, first compound 3.16 µM) was 36.6% and the viability, T/C (second compound 0.003 µM, first compound 10 µM) was 19.6%. The viability, T/C [15] was 99.3%, the viability, T/C [16] was 60.1% and the viability, T/C [17] was 51.9%. For the same molecule, the viability, T/C [18] was 46.9%, the viability, T/C (second compound 0.00949 µM, first compound 3.16 µM) was 32.1% and the viability, T/C (second compound 0.00949 µM, first compound 10 µM) was 22.4%. The viability, T/C [21] was 124%, the viability, T/C [22] was 59.4% and the viability, T/C [23] was 55.2%. It also gave a viability, T/C [24] of 42.3%, a viability, T/C (second compound 0.03 µM, first compound 3.16 µM) of 25.6% and a viability, T/C (second compound 0.03 µM, first compound 10 µM) of 22.8%. For the same molecule, the viability, T/C [27] was 103%, the viability, T/C [28] was 53.9% and the viability, T/C [29] was 43.9%. For the same molecule, the viability, T/C [30] was 37%, the viability, T/C (second compound 0.0949 µM, first compound 3.16 µM) was 20.1% and the viability, T/C (second compound 0.0949 µM, first compound 10 µM) was 19%. For the same molecule, the viability, T/C [33] was 58.5%, the viability, T/C [34] was 49.8% and the viability, T/C [35] was 47.9%. The viability, T/C [36] was 30.2%, the viability, T/C (second compound 0.3 µM, first compound 3.16 µM) was 25.2% and the viability, T/C (second compound 0.3 µM, first compound 10 µM) was 19.1%.

In the case of `O=C(c1ccc(F)c(F)c1Nc1ccc(I)cc1F)N1CC(O)([C@@H]2CCCCN2)C1` + CCn1c(-c2cccnc2C(C)OC)c2c3cc(ccc31)N1CCOC(CC(NC(=O)C(C(C)C)N(C)C(=O)C3(F)CCN(C(=O)C#CC(C)(C)N(C)C)CC3)C(=O)N3CCCC(N3)C(=O)OCC(C)(C)C2)C1, the IC50 (second compound 0.000949 µM) is reported as 378 nM, the IC50 (second compound 0.003 µM) is reported as 881 nM and the IC50 (second compound 0.00949 µM) is reported as 167 nM. For the same molecule, the IC50 (second compound 0.03 µM) was 135 nM, the IC50 (second compound 0.0949 µM) was 114 nM and the IC50 (second compound 0.3 µM) was 71.4 nM. For the same molecule, the viability, T/C [1] was 107%, the viability, T/C [2] was 123% and the viability, T/C [3] was 82%. For the same molecule, the viability, T/C [4] was 87.2%, the viability, T/C [5] was 52.4% and the viability, T/C [6] was 25.6%. The viability, T/C [7] was 106%, the viability, T/C [8] was 93.9% and the viability, T/C [9] was 90.3%. It also gave a viability, T/C [10] of 110%, a viability, T/C [11] of 74.9% and a viability, T/C [12] of 46.9%. For the same molecule, the viability, T/C [13] was 85.6%, the viability, T/C [14] was 75.6% and the viability, T/C [15] was 78.3%. The viability, T/C [16] was 60.6%, the viability, T/C [17] was 36.7% and the viability, T/C [18] was 30.9%. The viability, T/C [19] was 88.8%, the viability, T/C [20] was 85.8% and the viability, T/C [21] was 71.8%. The viability, T/C [22] was 60.9%, the viability, T/C [23] was 28.4% and the viability, T/C [24] was 32.6%. For the same molecule, the viability, T/C [25] was 87.6%, the viability, T/C [26] was 78.2% and the viability, T/C [27] was 72.2%. The viability, T/C [28] was 55.8%, the viability, T/C [29] was 27.1% and the viability, T/C [30] was 26.6%. It also gave a viability, T/C [31] of 82.9%, a viability, T/C [32] of 70% and a viability, T/C [33] of 67.3%. For the same molecule, the viability, T/C [34] was 42.4%, the viability, T/C [35] was 31.4% and the viability, T/C [36] was 26.1%.
